*: point of attachment. NHNH2 = NN*
Experiments:
Format in all cases: cell-based
[1] = tested on: Hek293 cells; experiment: RLuc pDNA delivery, robotic library screening, Hek293
[2] = tested on: Hek293 cells; experiment: EGFP mRNA delivery, robotic library screening, Hek293
Protocol: (§1) Cells were seeded in a 96 well plate the day before the experiment at a concentration of 50,000 cell/mL (100 μL/w) in DMEM+10% FBS+1% Gln-Abt. For robotic library screening, the delivery of EGFP-mRNA (from TriLink, fully substituted with 5-methoxyuridine, capped and polyadenylated; TriLink, CleanCap® EGFP mRNA (5moU), ref. L-7201) in six different cell lines was performed. Amphiphilic molecule stock solutions were prepared in DMSO as described above and diluted in DMEM to afford a range of concentrations. The solutions of EGFP-mRNA/amphiphilic molecule complexes were freshly prepared prior to the transfection experiments. 35 μL of the corresponding amphiphile were added to 10 μL of a solution of EGFP-mRNA at 10 ng/μL in DMEM. The mixture was shaken for 30 min at room temperature before the addition to the cells. The cell medium was aspirated, and cells were washed with PBS twice. Cells were covered with 39 μL of DMEM and 11 μL of the complex's solution were added to the cells and incubated for 4 h (final concentration of peptide=2.5, 5 and 10 μM; final concentration of EGFP-mRNA=25 ng/well). After the incubation, the medium was replaced by 100 μL of fresh DMEM supplemented with 10% FBS. The total EGFP fluorescence was quantified after 72 h in a well plate reader. Amphiphile transfection efficiency was compared and normalized to Lipofectamine® MessengerMax efficiency (value of 1 in Tables 1-5 and 7; double underlined numbers). All experiments were done in triplicate.
(§2) Tables 1-7: RLuc (pDNA) or EGFP (mRNA) expression levels were normalized to Lipofectamine reagents (value=1) and expressed as fold-times signal increase. In the case of siRNA, the siRNA treated cells fluorescence was compared with siMOCK control fluorescence, while Cas9-RNP mediated knockout was measured against the fluorescence of untreated cells. In both siRNA and Cas9-RNP, values are expressed as % fluorescence reduction. Amphiphile concentration was 5 μM in all cases. All experiments were performed in triplicate.
(§3) Tables 14-19 show the mean (triplicates) fluorescence intensity measured after the transfection of EGFP mRNA by different amphiphiles at different concentrations in a variety of cell lines. Background fluorescence values, accounted by untreated control cells, were subtracted for processing.

[3] = tested on: Hela cells; experiment: EGFP mRNA delivery, robotic library screening, HeLa
Protocol: as §1, §2, §3

[4] = tested on: HCT116 cells expressing EGFP; experiment: Cas9-RNP delivery against EGFP (gene editing, plate reader), HCT116
Protocol: To generate an EGFP expressing HeLa cell line, HeLa cells were transfected with EGFP pDNA (pEGFP-C1, Clontech) and stable transfectants were selected with 400 μg/mL of G-418 (Millipore). Green clones were selected by epifluorescence microscopy and tested for EGFP expression stability through several passages. […] All other EGFP-expressing cell lines were obtained in a similar way from parent non-EGFP-expressing cell lines.
Cells expressing EGFP were seeded in a 96 well plate the day before the experiment at a concentration of 50,000 cell/mL (100 μL/w) in DMEM+10% FBS+1% Gln-Abt. For robotic library screening, the delivery of Cas9-RNP against EGFP (RNP designed to knock-out the gene encoding for the enhanced green fluorescent protein (EGFP)) was performed. For RNP assembly, 9.2 μL of crRNA and 9.2 μL of tracrRNA were mixed in 211.6 μL of Nuclease-Free Duplex Buffer (IDT), incubated for 5 min at 95° C. and slowly cooled at rt (see I. Lostalé-Seijo, et al. Peptide/Cas9 nanostructures for ribonucleoprotein cell membrane transport and gene edition, Chem. Sci., 2017). Cas9 protein was dissolved in DMEM at a final concentration of 4 μM and equal volumes of the RNA complex and Cas9 were mixed and incubated for 5 min at rt. 75 μL of the corresponding amphiphile concentrations were added to 5 μL of RNP at 2 μM. The mixture was shaken for 30 min at room temperature before the addition to the cells. The cell medium was aspirated, and cells were washed twice with PBS. Cells were covered with 30 μL of DMEM and 20 μL of the RNP/amphiphile complexes were added to the cells (final peptide concentrations=2.5, 5 and 10 μM; final Cas9-RNP concentration=50 nM) and incubated for 4 h. After the incubation, the medium was replaced by 100 μL of fresh DMEM supplemented with 10% FBS. The total EGFP fluorescence was quantified after 72 h in a plate reader (FIG. 2, Table 1 (right) and Table 6). All experiments were done in triplicate. […]
Tables 26-31 show the mean (triplicates) percentage of gene editing, accounted by GFP fluorescence intensity decrease (% of reduction), measured after the transfection of Cas9-RNP by different amphiphiles at different concentrations in a variety of cell lines. Background values, accounted by untreated control cells, were subtracted for processing.

Ac-RHLK*RLK*RRLK*RL-NH2 (Ac-RHLKRLKRRLKRL-NH2; not fully specified (residues 4, 7, 11); printed as Ac-RHLK*RLK*RRLK*RL-NH2; also: linker on K* not given here) [13(Arg-His)]
mean luminescent intensity (RLuc pDNA) ([1]; Dodecanal, 5 μM): 265059 RLU
mean luminescent intensity (RLuc pDNA) ([1]; Dodecanal, 10 μM): 309302 RLU
mean luminescent intensity (RLuc pDNA) ([1]; Dodecanal, 15 μM): 78888 RLU
mean luminescent intensity (RLuc pDNA) ([1]; Palmitoleyl, 5 μM): 280799 RLU
mean luminescent intensity (RLuc pDNA) ([1]; Palmitoleyl, 10 μM): 124471 RLU
mean luminescent intensity (RLuc pDNA) ([1]; Palmitoleyl, 15 μM): 19968 RLU
mean luminescent intensity (RLuc pDNA) ([1]; Petroselinyl, 5 μM): 258944 RLU
mean luminescent intensity (RLuc pDNA) ([1]; Petroselinyl, 10 μM): 217264 RLU
mean luminescent intensity (RLuc pDNA) ([1]; Petroselinyl, 15 μM): 101890 RLU
mean fluorescence intensity (EGFP mRNA) ([2]; Myristoleyl, 2.5 μM): 2326
mean fluorescence intensity (EGFP mRNA) ([2]; Oleyl, 2.5 μM): 5005
mean fluorescence intensity (EGFP mRNA) ([2]; Oleyl, 5 μM): 1571
mean fluorescence intensity (EGFP mRNA) ([2]; Oleyl, 10 μM): 1231
mean fluorescence intensity (EGFP mRNA) ([2]; Palmitoleyl, 10 μM): 777
mean fluorescence intensity (EGFP mRNA) ([2]; Petroselinyl, 2.5 μM): 1436
mean fluorescence intensity (EGFP mRNA) ([2]; Petroselinyl, 5 μM): 638
mean fluorescence intensity (EGFP mRNA) ([2]; Petroselinyl, 10 μM): 372
mean fluorescence intensity (EGFP mRNA) ([3]; HeLa, Palmitoleyl, 2.5 μM): 578
mean fluorescence intensity (EGFP mRNA) ([3]; HeLa, Petroselinyl, 2.5 μM): 360
mean fluorescence intensity (EGFP mRNA) ([3]; HeLa, Petroselinyl, 10 μM): −15
mean fluorescence intensity (EGFP mRNA) ([3]; Hela, Petroselinyl, 5 μM): 135
percentage of gene editing, GFP fluorescence intensity decrease (% of reduction) ([4]; Dodecanal, 5 μM): 4%
percentage of gene editing, GFP fluorescence intensity decrease (% of reduction) ([4]; Dodecanal, 10 μM): 5%
percentage of gene editing, GFP fluorescence intensity decrease (% of reduction) ([4]; Dodecanal, 15 μM): 16%
percentage of gene editing, GFP fluorescence intensity decrease (% of reduction) ([4]; Myristoleyl, 5 μM): −7%
percentage of gene editing, GFP fluorescence intensity decrease (% of reduction) ([4]; Myristoleyl, 15 μM): 29%
percentage of gene editing, GFP fluorescence intensity decrease (% of reduction) ([4]; Oleyl, 5 μM): 5%
percentage of gene editing, GFP fluorescence intensity decrease (% of reduction) ([4]; Palmitoleyl, 5 μM): 30%
percentage of gene editing, GFP fluorescence intensity decrease (% of reduction) ([4]; Palmitoleyl, 10 μM): 22%
percentage of gene editing, GFP fluorescence intensity decrease (% of reduction) ([4]; Palmitoleyl, 15 μM): 9%
percentage of gene editing, GFP fluorescence intensity decrease (% of reduction) ([4]; Petroselinyl, 10 μM): 6%

Ac-RK*LRK*K*L-NH2 (Ac-RK(NHNH2)LRK(NHNH2)K(NHNH2)L-NH2; not fully specified; printed as Ac-RK*LRK*K*L-NH2; also: K*2,K*5,K*6: native or modified lysine (ε-amide to a linker)) [Peptide 7.3]
mean luminescent intensity (RLuc pDNA) ([1]; Dodecanal, 10 μM): 11481 RLU
mean luminescent intensity (RLuc pDNA) ([1]; Dodecanal, 15 μM): 13690 RLU
mean luminescent intensity (RLuc pDNA) ([1]; Myristoleyl, 5 μM): 94318 RLU
mean luminescent intensity (RLuc pDNA) ([1]; Myristoleyl, 10 μM): 179823 RLU
mean luminescent intensity (RLuc pDNA) ([1]; Palmitoleyl, 5 μM): 2088 RLU
mean luminescent intensity (RLuc pDNA) ([1]; Petroselinyl, 5 μM): 7479 RLU
mean luminescent intensity (RLuc pDNA) ([1]; Petroselinyl, 10 μM): 2932 RLU
mean fluorescence intensity (EGFP mRNA) ([2]; Dodecanal, 2.5 μM): 9114
mean fluorescence intensity (EGFP mRNA) ([2]; Dodecanal, 5 μM): 17096
mean fluorescence intensity (EGFP mRNA) ([2]; Dodecanal, 10 μM): 2056
mean fluorescence intensity (EGFP mRNA) ([2]; Myristoleyl, 2.5 μM): 11081
mean fluorescence intensity (EGFP mRNA) ([2]; Myristoleyl, 5 μM): 2907
mean fluorescence intensity (EGFP mRNA) ([2]; Myristoleyl, 10 μM): 982
mean fluorescence intensity (EGFP mRNA) ([2]; Oleyl, 2.5 μM): 3452
mean fluorescence intensity (EGFP mRNA) ([2]; Oleyl, 5 μM): 1414
mean fluorescence intensity (EGFP mRNA) ([2]; Oleyl, 10 μM): 805
mean fluorescence intensity (EGFP mRNA) ([2]; Palmitoleyl, 2.5 μM): 4120
mean fluorescence intensity (EGFP mRNA) ([2]; Petroselinyl, 2.5 μM): 9200
mean fluorescence intensity (EGFP mRNA) ([2]; Petroselinyl, 5 μM): 8731
mean fluorescence intensity (EGFP mRNA) ([2]; Petroselinyl, 10 μM): 476
mean fluorescence intensity (EGFP mRNA) ([3]; HeLa, Dodecanal, 2.5 μM): 6327
mean fluorescence intensity (EGFP mRNA) ([3]; HeLa, Dodecanal, 5 μM): 4738
mean fluorescence intensity (EGFP mRNA) ([3]; HeLa, Myristoleyl, 2.5 μM): 13591
mean fluorescence intensity (EGFP mRNA) ([3]; HeLa, Oleyl, 5 μM): 501
mean fluorescence intensity (EGFP mRNA) ([3]; HeLa, Petroselinyl, 2.5 μM): 9039
mean fluorescence intensity (EGFP mRNA) ([3]; HeLa, Petroselinyl, 10 μM): 732
mean fluorescence intensity (EGFP mRNA) ([3]; Hela, Dodecanal, 10 μM): 572
mean fluorescence intensity (EGFP mRNA) ([3]; Hela, Myristoleyl, 10 μM): 647
mean fluorescence intensity (EGFP mRNA) ([3]; Hela, Palmitoleyl, 10 μM): 189
percentage of gene editing, GFP fluorescence intensity decrease (% of reduction) ([4]; Dodecanal, 15 μM): −11%
percentage of gene editing, GFP fluorescence intensity decrease (% of reduction) ([4]; Myristoleyl, 15 μM): 4%
percentage of gene editing, GFP fluorescence intensity decrease (% of reduction) ([4]; Oleyl, 5 μM): −7%
percentage of gene editing, GFP fluorescence intensity decrease (% of reduction) ([4]; Oleyl, 10 μM): 4%
percentage of gene editing, GFP fluorescence intensity decrease (% of reduction) ([4]; Palmitoleyl, 5 μM): −12%
percentage of gene editing, GFP fluorescence intensity decrease (% of reduction) ([4]; Palmitoleyl, 10 μM): 17%
percentage of gene editing, GFP fluorescence intensity decrease (% of reduction) ([4]; Palmitoleyl, 15 μM): 35%
percentage of gene editing, GFP fluorescence intensity decrease (% of reduction) ([4]; Petroselinyl, 5 μM): 39%
percentage of gene editing, GFP fluorescence intensity decrease (% of reduction) ([4]; Petroselinyl, 10 μM): 34%

Ac-RK*LRRK*L-NH2 (Ac-RK(NHNH2)LRRK(NHNH2)L-NH2; not fully specified; printed as Ac-RK*LRRK*L-NH2; also: K*2,K*6: native or modified lysine (ε-amide to a linker)) [Peptide 7.2]
mean luminescent intensity (RLuc pDNA) ([1]; Dodecanal, 10 μM): 8723 RLU
mean luminescent intensity (RLuc pDNA) ([1]; Dodecanal, 15 μM): 11358 RLU
mean luminescent intensity (RLuc pDNA) ([1]; Myristoleyl, 5 μM): 5382 RLU
mean luminescent intensity (RLuc pDNA) ([1]; Myristoleyl, 10 μM): 24464 RLU
mean luminescent intensity (RLuc pDNA) ([1]; Myristoleyl, 15 μM): 8475 RLU
mean fluorescence intensity (EGFP mRNA) ([2]; Dodecanal, 2.5 μM): 251
mean fluorescence intensity (EGFP mRNA) ([2]; Dodecanal, 5 μM): 71
mean fluorescence intensity (EGFP mRNA) ([2]; Dodecanal, 10 μM): 648
mean fluorescence intensity (EGFP mRNA) ([2]; Myristoleyl, 2.5 μM): 2550
mean fluorescence intensity (EGFP mRNA) ([2]; Myristoleyl, 5 μM): 1729
mean fluorescence intensity (EGFP mRNA) ([2]; Myristoleyl, 10 μM): 591
mean fluorescence intensity (EGFP mRNA) ([3]; HeLa, Dodecanal, 2.5 μM): 268
mean fluorescence intensity (EGFP mRNA) ([3]; HeLa, Dodecanal, 5 μM): 341
mean fluorescence intensity (EGFP mRNA) ([3]; HeLa, Myristoleyl, 2.5 μM): 5194
mean fluorescence intensity (EGFP mRNA) ([3]; Hela, Dodecanal, 10 μM): 288
mean fluorescence intensity (EGFP mRNA) ([3]; Hela, Myristoleyl, 5 μM): 654
mean fluorescence intensity (EGFP mRNA) ([3]; Hela, Myristoleyl, 10 μM): 358
percentage of gene editing, GFP fluorescence intensity decrease (% of reduction) ([4]; Dodecanal, 15 μM): −18%
